Consider two compounds from US5069909A, “Transdermal administration of buprenorphine” (Cygnus Therapeutic Systems, priority 1990, dated 1991).

Values after ≈ are worked out from the molar mass of the structure shown. Where a name gives a salt, the structure may show the parent alone. Read-outs that look alike come from different tables or passages of the source.

For data set [1] the following is noted: flow-through cells.
The next data set in a line: physchem. Type of data set: physicochemical. To be noted: for solubility thermodynamic: read-out: Cs. As for the experimental part:
Solubility Determination: The solubility of buprenorphine base and HCl salt in various vehicles was obtained by equilibrating a large excess of solute with the vehicle in a water-jacketed glass container. Temperature was maintained at 32° C. by a constant temperature water bath and vigorous mixing with a magnetic stirring bar. Equilibrium time for all the studies was ≥48 hr. An excess of solute was always present in the slurries. Samples were taken, filtered through glass wool-tipped pipets, and an appropriate volume of filtrate was diluted with acetonitrile and assayed by HPLC. The procedure was repeated three times and an average value calculated.

The format of data set [2] is in vitro ADME, Human. As to conditions: 32° C.; for Jskin: aqueous (deionized water) saturated solution, side-by-side cells; for increase of skin flux upon stripping (fold): stripped vs heat-separated epidermis. As for the experimental part:
(§1) Stirring was set at 200 rpm throughout the experiment. […] The samples were assayed by HPLC.
In order to determine the principal diffusional barrier of skin in transporting both base and HCl salt across the membrane, the permeating of drug through heat-separated epidermis was compared with stripped epidermis. Stripping removes most of the stratum corneum. The skin was stripped with Scotch brand cellophane tape to remove stratum corneum twenty times. Permeations of the base and the HCl salt through heat-separated epidermis and stripped epidermis from saturated aqueous solution at 32° C. are shown in Table 7.

Data set [3] in a line: Octanol-water partition coefficient.
A short description of the next data set: pKa. In kind it is physicochemical.
For data set [4] the following is noted: cited from earlier work.
A short description of the next data set: in vitro. To be noted: for Jskin: n=3; for Papp: human, P = J/Cs, read-out: P (permeability coefficient) (converted). In kind it is in vitro ADME, Human. As for the experimental part: as §1

Usually Solubility stands for how much of the substance goes into solution per volume. The low end stands for little dissolved substance, the high end for much dissolved substance. What is called solubility is the concentration that dissolves in the medium under given conditions. For orientation: logP means the decadic logarithm of the partition coefficient of the neutral form, usually between octanol and water. Take `CO[C@@]12CC[C@@]3(C[C@@H]1[C@](C)(O)C(C)(C)C)[C@H]1Cc4ccc(O)c5c4[C@@]3(CCN1CC1CC1)[C@H]2O5` [Buprenorphine HCl]: the “skin flux from saturated solutions, comparison (in words)” value in data set [1] is given as “relatively higher penetration than the base form”. In addition, in the data set “physchem”, the “solubility (in words)” value was “considerably higher than the free base form's”. In “physchem” (deionized water), the Solubility turned out to be 12000 µg/mL. Moreover, the solubility was found to be 12000 µg/mL in the data set “physchem” (deionized water, water) and 22500 µg/mL in “physchem” (propylene glycol, organic solvent or mixture). Further, the “skin flux of HCl salt vs base (in words)” value in data set [2] (aqueous saturated solution) is “higher than that of the base form”. Further, the Jskin in data set [2] (epidermis) is 2.1 (2.4, 1.7) μg/cm^2 /h; in data set [2] (stripped epidermis), 20.5 ± 4.3 μg/cm^2 /h. The “increase of skin flux upon stripping (fold)” value in data set [2] was found to be 10 fold. The same compound gave a logP in data set [3] of 2.63.
For orientation: pKa means the negative logarithm of the acid dissociation constant. As usually defined, the Vdss is the apparent volume that relates the amount in the body to the concentration in plasma or blood. In the data set “pKa”, `CO[C@]12CC[C@@]3(C[C@@H]1[C@](C)(O)C(C)(C)C)[C@H]1Cc4ccc(O)c5c4[C@@]3(CCN1CC1CC1)[C@H]2O5` [Buprenorphine, (5α, 7α (s))-17-(cyclopropylmethyl)-α (1,1-dimethylethyl)-4,5-epoxy18,19-dihydro-3-hydroxy-6-methoxy-α-methyl-6,14-ethenomorphinan-7-methanol] gave a pKa of 8.4. The Solubility in “physchem” (Transcutol, 32° C.) was found to be 88600 µg/mL (≈ 189000 µM); in the data set “physchem” (Water (deionized), 32° C.) it was 8 µg/mL (≈ 17.1 µM). Besides, the solubility amounted to 8 µg/mL (≈ 17.1 µM) in “physchem” (Water (deionized), 32° C., read-out: Solubility); 58400 µg/mL (≈ 125000 µM) in “physchem” (organic solvent or mixture, Ethanol (absolute), 32° C., read-out: Solubility); 13300 µg/mL (≈ 28400 µM) in the data set “physchem” (organic solvent or mixture, Isopropyl myristate, 32° C., read-out: Solubility); 5100 µg/mL (≈ 10900 µM) in “physchem” (organic solvent or mixture, Propylene Glycol, 32° C., read-out: Solubility); 37900 µg/mL (≈ 81000 µM) in the data set “physchem” (organic solvent or mixture, Propylene glycol-monolaurate, 32° C., read-out: Solubility); 88600 µg/mL (≈ 189000 µM) in “physchem” (organic solvent or mixture, Transcutol, 32° C., read-out: Solubility). Moreover, the solubility thermodynamic in “physchem” (equilibrium pH 5.0, 32° C.) was 692 µg/mL (≈ 1480 µM); in “physchem” (equilibrium pH 6.0, 32° C.), 82 µg/mL (≈ 175 µM); in the data set “physchem” (equilibrium pH 7.0, 32° C.), 6 µg/mL (≈ 12.8 µM); in the data set “physchem” (equilibrium pH 7.9, 32° C.), 0.6 µg/mL (≈ 1.28 µM); in the data set “physchem” (equilibrium pH 8.7, 32° C.), 0.14 µg/mL (≈ 0.299 µM). Besides, the “solubility as a function of pH (in words)” value in the data set “physchem” (pH 5.0 to 8.7) is “decreases exponentially as the pH increases”. Further, the Jskin in data set [2] (epidermis) is reported as 0.37 (0.35, 0.39) μg/cm^2 /h; in data set [2] (stripped epidermis), 2.2 ± 0.3 μg/cm^2 /h; in “in vitro” (equilibrium pH 5.0, 32° C.), 0.59 ± 0.13 μg/cm^2 /h; in “in vitro” (equilibrium pH 6.0, 32° C.) it was 0.48 ± 0.02 μg/cm^2 /h; in the data set “in vitro” (equilibrium pH 7.0, 32° C.) it was 0.14 ± 0.01 μg/cm^2 /h; in “in vitro” (equilibrium pH 7.9, 32° C.) it was 0.05 ± 0.02 μg/cm^2 /h. Moreover, in the data set “in vitro” (equilibrium pH 8.7, 32° C.), the Jskin turned out to be 0.03 ± 0.01 μg/cm^2 /h. For the same compound, the “increase of skin flux upon stripping (fold)” value in data set [2] stood at 6 fold. The compound also showed a logP in data set [3] of 3.09. Also, the “CIT (clearance, ClT)” value in data set [4] (Daily dose […] (i.v., tid)) is 77 ± 5 L/h. Further, in data set [4] (Daily dose […] (i.v., tid)), the “T1/2 β” value is given as 3.1 ± 0.6 h. The volume of distribution (Vdss) in data set [4] (in vivo, iv) is recorded as 188 ± 35 L. In data set [4] (in vivo), the “MEC (analgesics)” value was 0.5 to 0.7 ng/mL. For the same compound, the Papp in “in vitro” (equilibrium pH 5.0, 32° C.) is 0.242 ×10⁻⁶ cm/s; in the data set “in vitro” (equilibrium pH 6.0, 32° C.) it was 1.64 ×10⁻⁶ cm/s; in the data set “in vitro” (equilibrium pH 7.0, 32° C.), 6.39 ×10⁻⁶ cm/s; in the data set “in vitro” (equilibrium pH 7.9, 32° C.), 23.1 ×10⁻⁶ cm/s; in the data set “in vitro” (equilibrium pH 8.7, 32° C.) it was 58.3 ×10⁻⁶ cm/s. The “skin flux as a function of pH (in words)” value in “in vitro” (pH 8.7 to 5) is “increased as the pH was decreased to 5”. In addition, in the data set “in vitro” (pH raised to 8.7), the “permeability coefficient as a function of pH (in words)” value is given as “increased as the pH was raised to 8.7”.
